Measurements: patent US12533439B2, “Antibacterial wound treatments with clot-promoting properties” (University of Georgia Research Foundation, Inc., priority 2019, dated 2026)

How the values were obtained:
[1] = test system: 3T3 mouse fibroblast cells; experiment: WST-8 (CCK-8) cell viability assay on dressing leachates; assay type: cell-based; settings: 24-hour leachate
Excerpt: The manufacturer's (Sigma-Aldrich) protocol was followed while using CCK-8 kit which utilizes highly water-soluble tetrazolium salt. In the live cells, WST-8 [2-(2-methoxy-4-nitrophenyl)-3-(4-nitrophenyl)-5-(2,4-disulfophenyl)-2H-tetrazolium monosodium salt] is reduced by dehydrogenases to give formazan (an orange-colored product), which can be detected at 450 nm. This means that a noncytotoxic material should generate a higher level of formazan than a relatively cytotoxic material because of WST-8 reduction. To obtain the leachate, samples weighing 10 mg each were added to 10 ml to in the DMEM medium for 24 hours at 37° C. The leachate was later used to grow the cells.
Seeding of cells. A culture of the fibroblast cells was grown in a 75 cm2 T-flask with Dulbecco modified Eagle's medium (DMEM) with 4.5 g/L-glutamine, 4.5 g/L glucose, 1% penicillin-streptomycin and 10% fetal bovine serum (FBS) after thawing a cryopreserved vial of fibroblast cells.^11 The cells could proliferate in an incubator which provided a physiological condition for their growth (5% CO2, 37° C.) until the confluence reached around 80-90%. […] The formula below was used to calculate cell viability.^12
To ensure that the components of wound dressing—CarboSil®, SNAP, TXA, and propolis—are not cytotoxic to the mammalian cells, a 24-hour cytotoxicity study was conducted on mouse fibroblast cells.

[2] = TXA administered within 1 hour of injury; cited from earlier work

SMILES | cytotoxicity (relative cell viability) [1] | reduction in deaths [2]
CC(=O)N[C@H](C(=O)O)C(C)(C)SN=O (racemic) [SNAP, S-nitroso-N-acetylpenicillamine] | non-cytotoxic | 
NC[C@H]1CC[C@H](C(=O)O)CC1 [TXA, tranexamic acid] |  | 32%
